# Data taken from patent publication US20220144847A1, “HETEROCYCLIC COMPOUND, PHARMACEUTICAL COMPOSITION COMPRISING SAME, PREPARATION METHOD THEREFOR, AND USE THEREOF” (Sichuan Kelun-Biotech Biopharmaceutical Co., Ltd., priority 2019, published 2022).
# What was measured:
# [1] = tested on: human medullary thyroid carcinoma TT cells; assay: Efficacy test in mice, subcutaneous xenograft tumor of TT cells; assay type: in vivo, Balb/c-nu mouse; details: 5 mg/kg, PO, BID; TT nude mouse xenograft
# Procedure: Experimental purpose: To evaluate the in vivo efficacy of Compound 17 and BLU-667 in a Balb/c-nu mouse model with a subcutaneous xenograft tumor of human medullary thyroid carcinoma TT cells.
# Drug preparation: Compound 17 was dissolved in 0.1 M aqueous solution of H3PO4, and BLU-667 was dissolved in 0.1 M aqueous solution of HOAc, to prepare clear solutions (pH: about 4.0). An aqueous solution of H3PO4 at a pH of about 4.0 was used for the solvent control group. The mode of administration was PO, BID.
# Tumor measurement: The tumor diameter was measured with a vernier caliper twice a week. The computing formula of the tumor volume is: V=0.5×a×b^2, where a represents a long diameter of the tumor, and b represents a short diameter of the tumor. Evaluation of tumor growth inhibition rate (TGI (%)) for tumor inhibition efficacy of the compounds: TGI (%)=[(1-(mean tumor volume of a treatment group at the end of drug administration-mean tumor volume of the treatment group at the commencement of drug administration))/(mean tumor volume of a solvent control group at the end of treatment-mean tumor volume of the solvent control group at the commencement of treatment)]×100%.
# Statistical analysis: Prism Graphpad5.0 software was used for statistical analysis based on the relative tumor volume at the end of the experiment. The comparison between multiple groups was analyzed by two-way ANOVA, and p<0.05 was considered as a significant difference.
# Experimental results: In the TT nude mouse xenograft model of human medullary thyroid carcinoma, Compound 17 has a significant […] anti-tumor effect at a dose of 5 mg/kg. […] Relative tumor growth rate T/C (%)=TRTV/CRTV×100%, where TRTV is the mean relative tumor volume of the test compound group, CRTV is the relative tumor volume of the solvent control group; and the relative tumor volume RTV=Vt/V0, where V0 is the mean tumor volume at the commencement of the administration, and Vt is the mean tumor volume measured on day t after the administration.
# [2] = biological target: RET-M918T (Homo sapiens, UniProt P07949, M918T); assay: RET inhibition experiment (HTRF KinEASE-TK kit), mutant RET-M918T; assay type: biochemical; details: read-out: The IC50 (nM) for inhibiting the enzyme RET-M918T
# RET-M918T, sequence (P07949 29-1114 M918T): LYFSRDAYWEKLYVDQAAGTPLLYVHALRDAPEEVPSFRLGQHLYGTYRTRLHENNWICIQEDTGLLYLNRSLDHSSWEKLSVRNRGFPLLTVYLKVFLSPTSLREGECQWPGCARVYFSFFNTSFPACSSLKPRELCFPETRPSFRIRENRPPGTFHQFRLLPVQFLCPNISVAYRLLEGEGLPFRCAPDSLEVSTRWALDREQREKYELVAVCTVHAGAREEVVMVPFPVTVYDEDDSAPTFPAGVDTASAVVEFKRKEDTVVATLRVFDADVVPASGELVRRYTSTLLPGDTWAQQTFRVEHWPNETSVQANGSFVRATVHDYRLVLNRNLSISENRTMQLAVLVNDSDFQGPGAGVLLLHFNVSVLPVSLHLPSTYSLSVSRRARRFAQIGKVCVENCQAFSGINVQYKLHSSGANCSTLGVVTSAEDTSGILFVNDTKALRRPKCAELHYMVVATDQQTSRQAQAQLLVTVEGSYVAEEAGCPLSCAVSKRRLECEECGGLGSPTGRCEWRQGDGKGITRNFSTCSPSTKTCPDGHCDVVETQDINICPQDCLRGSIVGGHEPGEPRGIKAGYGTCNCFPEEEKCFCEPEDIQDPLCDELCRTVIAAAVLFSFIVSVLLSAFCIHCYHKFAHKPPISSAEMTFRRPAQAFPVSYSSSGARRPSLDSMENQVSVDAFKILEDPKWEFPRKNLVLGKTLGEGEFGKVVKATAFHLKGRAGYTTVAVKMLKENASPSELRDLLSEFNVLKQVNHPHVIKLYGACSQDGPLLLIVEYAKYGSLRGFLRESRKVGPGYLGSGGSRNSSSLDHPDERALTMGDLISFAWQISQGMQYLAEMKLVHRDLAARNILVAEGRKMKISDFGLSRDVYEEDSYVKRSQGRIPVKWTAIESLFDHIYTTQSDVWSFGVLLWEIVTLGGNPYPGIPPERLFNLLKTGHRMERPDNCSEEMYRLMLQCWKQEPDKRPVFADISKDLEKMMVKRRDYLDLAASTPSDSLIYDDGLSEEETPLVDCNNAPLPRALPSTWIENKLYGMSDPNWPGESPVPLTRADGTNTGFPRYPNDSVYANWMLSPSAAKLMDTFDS
# Procedure: Experimental method: […] After incubation at room temperature for 40 min, TK antibody-cryptate and streptavidin-XL665 were added, and the test was performed after incubation at room temperature for 45 min. With the solvent group (DMSO) as the negative control and the buffer group (without RET enzyme) as the blank control, the relative inhibitory activity percentages (i.e., inhibition rates) of different concentrations of the compounds were computed as per the following formula: […] The relative inhibitory activity percentages of different concentrations of the compounds were plotted with respect to the compound concentrations, and the curve was fitted according to a four-parameter model to compute the IC50 value as per the following formula: y=min+(max-min)/(1+(x/IC50)^(-Hillslope)) where y is the relative inhibitory activity percentage, max is the maximum value of the fitted curve, min is the minimum value of the fitted curve, x is the logarithmic concentration of the compound, and Hillslope is the slope of the curve.
smiles,measurement,setting,value
"Cc1cc(Nc2cc(C)[nH]n2)nc(-c2ccc(N3CC4CC(C3)N4Cc3ccc(-n4cc(F)cn4)nc3)nc2)n1 [Compound 17, 2-(6-(6-((6-(4-fluoro-1H-pyrazol-1-yl)pyridin-3-yl)methyl)-3,6-diazabicyclo[3.1.1]heptan-3-yl)pyridin-3-yl)-6-methyl-N-(5-methyl-1H-pyrazol-3-yl)pyrimidin-4-amine]",Relative tumor growth rate T/C,[1],17.44%
same,Tumor growth inhibition rate TGI,[1],131.36%
same,IC50,[2],1.47 ± 0.29 nM
